Laboratory results as given in paper PMC11374660, “The novel family of Warbicin® compounds inhibits glucose uptake both in yeast and human cells and restrains cancer cell proliferation” (Frontiers in Oncology, 2024).
Like-named read-outs stand apart in the source and are kept apart here.

Legend:
[1] = system: glucose uptake by tps1Δ yeast cells; assay: Zero-trans uptake of radioactive glucose in tps1Δ yeast cells; format: cell-based, S. cerevisiae; conditions: for IC50: Saccharomyces cerevisiae
Protocol: Zero-trans uptake of radioactively labeled [U-^14C]glucose, [U-^14C]fructose or [U-^14C]galactose by S. cerevisiae cells was determined in accordance with previous studies ([45], [75]). Cells were grown on different carbon sources depending on the experiment. For measuring glucose uptake activity in the tps1Δ and tps1Δ hxtΔ strains, cells were grown on YP medium containing 325 mM glycerol (measurement of 10 s). Typically, for compound characterization and kinetic studies in wild type and tps1Δ strains, cells were (pre)grown on Complete Synthetic medium supplemented with 110 mM galactose (measurement of 10 s). In the experiments on the influence of hexokinase activity on the sugar uptake rate, the measurement duration was shortened to 5 s and cells were always grown on YP medium containing 325 mM glycerol and 430 mM ethanol. After harvesting, cells were washed twice with ice-cold 25 mM MES-buffer pH 6, and resuspended in their respective medium without sugar to a final concentration of 45 mg (wet weight)/mL. The amount of added tracer was estimated to give a response close to at least 1000 counts per min in order to adequately counter background noise. Cells were first preincubated for 10 min at 30°C with the compound to acclimate the cells to the temperature and to allow adequate interaction with the compound prior to uptake. Next, hexose sugar was mixed with the cell suspension, which was then incubated at 30°C for 5 or 10 s, depending on the experiment, after which the cells were rapidly filtered over a glass microfiber filter (Whatman GF/C) and washed three times with ice-cold dH2O. The loaded filter was transferred to a scintillation vial containing 3 mL liquid scintillation cocktail (Ultima-Flo M, Perkin Elmer) and counted using the Hidex 300 SL. Three blank measurements per strain were typically included to account for background signal, for which the cells were first quenched before adding the radioactive label.

[2] = system: A549 lung adenocarcinoma cells; assay: Proliferation of A549 lung adenocarcinoma cells; format: cell-based, human; conditions: for relative potency in reducing maximal growth rate of A549 cells: 1 mM glucose, 6.25-50 µM
Protocol: For both adherent A549 and MCF10A H-RAS^V12 cell lines, growth curves were established using the IncuCyte® ZOOM technology. By collecting phase contrast images, the IncuCyte® software provides a calculated confluency percentage from which growth curves can be deducted. The cell number/density was measured by calculating the confluency of phase objects (cells) sticking on the bottom of the well. Cells were seeded at a density of 1000 - 1500 cells/well in a Nunc-Edge™ 96-well plate (Thermo Fisher Scientific) and growth was typically measured over 3 to 5 days. For the measurement of apoptosis induction using the MCF10A H-RAS^V12 cell line, the IncuCyte® Caspase-3/7 green dye was added to the medium in the recommended concentration at the beginning of the growth curve experiment. Apoptosis was detected by taking fluorescent images by excitation at 488 nm followed by IncuCyte® software analysis. Cell growth of the KMS-12-PE multiple myeloma cell line, which grows in suspension, was measured by manual cell counting. Cells were initially seeded at a density of 10^4 cells/well and incubated for 4 days after which the cell number was counted. For all cell lines, the same medium used for pregrowth was also used for the growth curve experiment, albeit with different glucose concentrations depending on the experimental design. With compound administration, the final concentration of DMSO never exceeded 0.1%. Typically, at least four technical repeats were included per condition.

[3] = system: 2-deoxyglucose uptake in A549 lung adenocarcinoma cells; assay: 2-deoxyglucose uptake in A549 lung adenocarcinoma cells; format: cell-based, human
Protocol: Zero-trans glucose uptake in A549 cells was approximated by measuring the uptake of [1,2-^3H]2-deoxyglucose. For this purpose, A549 cells were pregrown in RPMI medium containing 10 mM glucose in a 24-well plate to a cell density of around 100,000 cells/well. Prior to adding radioactive label, cells were gently washed twice in Krebs-Ringer-HEPES buffer (50 mM HEPES pH 7.4, 137 mM NaCl, 4.7 mM KCl, […], 1.3 mM MgSO4 and 0.1% w/v BSA) at 30°C to remove any residual sugar. RPMI medium without sugar containing the compound intended for treatment, was added to the cells for 15 min at 37°C to allow adequate interaction of the cells with the compound. The uptake measurement was initiated by adding an equal volume of medium containing radiolabeled 2DG. After 3 - 4 min incubation at 37°C, medium was aspirated and cells were gently washed three times with ice-cold Krebs-Ringer-HEPES buffer. Cells were lysed by adding 200 µL of ice-cold 0.1 M NaOH solution and incubating the plate for 10 min at 37°C. Cell lysates were transferred to scintillation vials for subsequent scintillation counting. For blank measurements, cells were incubated with 50 µM Cytochalasin B prior to the uptake measurement.

[4] = system: female NMRI-nu mice; assay: In vivo toxicity and tolerability in mice; conditions: for abnormalities / toxic effects in liver and other organs at autopsy: daily i.p., toxic effects at 20 mg/kg WBC-15C and at 20 and 10 mg/kg WBC-11C, not at lower doses; for loss in body weight: daily intraperitoneal injection, 5, 10 and 20 mg/kg; for AST/ALT ratio vs vehicle: sera after 20 days, 5, 10, 20 mg/kg daily i.p.; for blood glucose level vs vehicle: sera post-mortem after 20 days, 5, 10, 20 mg/kg daily i.p.
Protocol: Warbicin ® in vivo toxicity and tolerability was examined by subjecting female NMRI-nu mice (12 weeks old) to daily intraperitoneal injection of either WBC-A, WBC-15C, WBC-4C or WBC-11C. Compounds were dosed at either 5 mg/kg, 10 mg/kg or 20 mg/kg over a period of 20 days. Three mice were used per condition. To evaluate toxicity, change in body weight was registered daily. As a humane endpoint, mice that lost more than 20% of their original body weight were prematurely sacrificed. In addition, liver function was examined by measuring the ratio of the AST to ALT enzyme activities (AbCam ab105135, ab105134) in sera samples collected at the end of the experiment. Furthermore, the blood glucose level in mice sera was determined using the colorimetric GOD-PAP method. Due to their considerable hydrophobicity, the compounds were dissolved in a sterilized 1xPBS, 5% DMSO and 5% Tween-80 solution until a homogenous suspension was obtained that could be administered in a reproducible way.

[5] = system: A549 lung adenocarcinoma cells; assay: Glucose consumption and lactate production over 8 h, A549; format: cell-based, human; conditions: A549, 25 µM, 1 mM glucose
Protocol: The influence of WBC compounds on glucose consumption over a longer time period was studied in the A549 adenocarcinoma and KMS-12-PE multiple myeloma cell lines. As such, different parameters needed to be optimized depending on whether cells were adherent or in suspension. As such, A549 cells were incubated at 125,000 cells/well in a 24-well plate in 300 µL RPMI medium for 8 h. For the KMS-12-PE cell line, 100,000 cells/well were incubated in 100 µL RPMI medium in a 96-well plate for 8 h. Medium was collected, spun down and HPLC-analyzed for measuring glucose and lactate levels. Metabolite levels were corrected for cell number, which always varied little over the span of 8 h. For every condition, at least 4 technical repeats were included.

Structure (SMILES) | IC50 ([1]; read-out: IC50 for inhibition of 2.5 mM glucose uptake) [µM] | type of inhibition of glucose uptake ([1]; tps1Δ yeast cells) | Ki ([1]; tps1Δ yeast cells, read-out: Ki (Dixon plot) for glucose uptake) [µM] | Selected from primary screen for growth inhibition of A549 cells at 50 µM ([2]; RPMI 1 mM glucose) | relative potency in reducing maximal growth rate of A549 cells [2] | inhibition of A549 growth ([2]; RPMI 1 mM glucose, 12.5 µM) | inhibition of A549 growth ([2]; RPMI 1 mM glucose, concentrations higher than 12.5 µM (25, 50 µM)) | inhibition of A549 growth ([2]; RPMI 1 mM or 5 mM glucose, 12.5-50 µM, more pronounced for 1 mM) | type of inhibition of 2-deoxyglucose uptake (Lineweaver-Burk) [3] | K'i for 2-deoxyglucose uptake ([3]; Dixon plot (Ki = K'i) or Cornish-Bowden plot (WBC-11C)) [µM] | Ki ([3]; read-out: Ki for 2-deoxyglucose uptake (Dixon plot)) [µM] | abnormalities / toxic effects in liver and other organs at autopsy ([4]; 20 days) | loss in body weight ([4]; nude mice, 20 days) | AST/ALT ratio vs vehicle [4] | blood glucose level vs vehicle [4] | inhibition of glucose consumption and lactate production [5] | IC50 ([1]; read-out: IC50 values for 2.5 mM glucose uptake in tps1∆ cells) [µM] | Selected for having an IC50 ratio (10 mM glucose : 1 mM glucose) of A549 growth higher than WBC-A ([2]; ratio of IC50 on 10 mM and 1 mM glucose, compared to WBC-A) | adipose tissue at autopsy ([4]; nude mice, daily i.p., 5, 10 and 20 mg/kg, 20 days, visual inspection vs vehicle)
Cc1nc(Sc2nnc3n2CCCCC3)c2c(-c3cccs3)csc2n1 [WBC-A] | 20.8 | mixed type of inhibition | 8.35 | Yes | intermediate potency | pronounced inhibition | completely blocked continued cancer cell proliferation | dose-dependent inhibition of growth | noncompetitive type of inhibition | 52.78 | 52.8 | No other abnormalities | no significant loss in body weight | No significant difference | No significant difference | did not cause inhibition | – | – | –
Cc1nc(SCC(=O)c2ccc3c(c2)NC(=O)CO3)c2c(-c3cccs3)csc2n1 [WBC-11C] | – | – | – | Yes | most | – | – | – | uncompetitive | – | – | toxic effects were seen in the liver and other organs | small transient drop | No significant difference | No significant difference | inhibited glucose consumption and lactate production | 44 | Higher IC50 ratio and confirmed | adipose tissue was also observed in between the intestines
